Experimental data as given in publication PMC8815882, “Screening the pandemic response box identified benzimidazole carbamates, Olorofim and ravuconazole as promising drug candidates for the treatment of eumycetoma” (PLoS Neglected Tropical Diseases, 2022).
Where two headings read alike, the source gives them in different places.

Legend:
[1] = tested on: M. mycetomatis genome strain MM55; experiment: CLSI M38-A2 based in vitro susceptibility screening (XTT or resazurin), growth at fixed concentration; format: cell-based, Madurella mycetomatis; conditions: Madurella mycetomatis
M. mycetomatis MM55 = experiment: IC50 determination, 2-fold dilution series 16 to 0.03125 μM; format: cell-based, Madurella mycetomatis
[2] = Madurella mycetomatis, MM55, mean of replicates; read-out: IC50 mean
[3] = Madurella mycetomatis, MM55; replicate 1; read-out: IC50 1 um
[4] = Madurella mycetomatis, MM55; replicate 2; read-out: IC50 2 um
[5] = Madurella mycetomatis, MM55; replicate 3; read-out: IC50 3 um
[6] = 25 uM, replicate A, read-out: Percentage survival at 25um, 25 um A
[7] = mean of three replicates, read-out: Percentage survival at 100um, 100 uM mean
[8] = replicate 1, read-out: Percentage survival at 100um, 100 uM A (first replicate column)
[9] = replicate 2, read-out: Percentage survival at 100um, 100 uM A (second replicate column)
[10] = replicate 3, read-out: Percentage survival at 100um, 100 uM A (third replicate column)
[11] = 25 uM, mean of three replicates, read-out: Percentage survival at 25um, 25 uM mean
[12] = 25 uM, replicate B, read-out: Percentage survival at 25um, 25 uM B
[13] = 25 uM, replicate C, read-out: Percentage survival at 25um, 25 uM C
[14] = Madurella mycetomatis, MM55, mean of three replicates; read-out: IC50 mean
[15] = Madurella mycetomatis, MM55; replicate 1; read-out: IC90 1 um
[16] = Madurella mycetomatis, MM55; replicate 2; read-out: IC90 2 um
[17] = Madurella mycetomatis, MM55; replicate 3; read-out: IC90 3 um
[18] = Madurella mycetomatis, MM55, mean of three replicates; read-out: IC90 mean
[19] = 25 uM, mean of three, M. mycetomatis MM55, read-out: Percentage survival at 25um, 25 uM mean
[20] = 25 uM, replicate A, M. mycetomatis MM55, read-out: Percentage survival at 25um, 25 um A
[21] = 25 uM, replicate B, M. mycetomatis MM55, read-out: Percentage survival at 25um, 25 uM B
[22] = 25 uM, replicate C, M. mycetomatis MM55, read-out: Percentage survival at 25um, 25 uM C
[23] = mean of three, M. mycetomatis MM55, read-out: Percentage survival at 100um, 100 uM mean
[24] = replicate 1, M. mycetomatis MM55, read-out: Percentage survival at 100um, 100 uM A (first replicate column)
[25] = replicate 2, M. mycetomatis MM55, read-out: Percentage survival at 100um, 100 uM A (second replicate column)
[26] = replicate 3, M. mycetomatis MM55, read-out: Percentage survival at 100um, 100 uM A (third replicate column)

| SMILES | Drug static or cidal (M. mycetomatis MM55) | IC50 (M. mycetomatis MM55; [3]) [µM] | IC50 (M. mycetomatis MM55; [4]) [µM] | IC50 (M. mycetomatis MM55; [5]) [µM] | activity at 25 µM [1, 6] [%] | activity at 100 µM [1, 7] [%] | activity at 100 µM [1, 8] [%] | activity at 100 µM [1, 10] [%] | activity at 25 µM [1, 11] [%] | activity at 25 µM [1, 12] [%] | activity at 25 µM [1, 13] [%] | Percent fungal survival at 100 µM [1, 9] [%] | IC50 (M. mycetomatis MM55; [14]) [µM] | IC90 (M. mycetomatis MM55; [15]) [µM] | IC90 (M. mycetomatis MM55; [16]) [µM] | IC90 (M. mycetomatis MM55; [17]) [µM] | IC90 (M. mycetomatis MM55; [18]) [µM] | other results |
| --- | --- | --- | --- | --- | --- | --- | --- | --- | --- | --- | --- | --- | --- | --- | --- | --- | --- | --- |
| COc1cc(NS(=O)(=O)c2ccc(C)cc2)c2ncccc2c1 [MMV098836] | Static | > 25 | > 25 | > 25 |  |  |  |  |  |  |  |  |  |  |  |  |  | activity at 25 µM ([1]; 25 uM, mean of replicates, MM55, read-out: Percentage survival at 25um, 25 uM mean): 6.7%; activity at 25 µM ([1]; 25 uM, replicate A, MM55, read-out: Percentage survival at 25um, 25 um A): 6.32%; activity at 25 µM ([1]; 25 uM, replicate B, MM55, read-out: Percentage survival at 25um, 25 uM B): -0.482%; activity at 25 µM ([1]; 25 uM, replicate C, MM55, read-out: Percentage survival at 25um, 25 uM C): 14.3%; activity at 100 µM ([1]; mean of replicates, MM55, read-out: Percentage survival at 100um, 100 uM mean): 6.45%; activity at 100 µM ([1]; replicate 1, MM55, read-out: Percentage survival at 100um, 100 uM A): 4.22%; activity at 100 µM ([1]; replicate 2, MM55, read-out: Percentage survival at 100um, 100 uM A): 0.942%; activity at 100 µM ([1]; replicate 3, MM55, read-out: Percentage survival at 100um, 100 uM A): 14.2%; IC50 (M. mycetomatis MM55; [2]): > 25 µM; IC90 (M. mycetomatis MM55; Madurella mycetomatis, MM55; IC90, mean of replicates; read-out: IC90 mean): > 25 µM; IC90 (M. mycetomatis MM55; Madurella mycetomatis, MM55; IC90, replicate 1; read-out: IC90 1 um): > 25 µM; IC90 (M. mycetomatis MM55; Madurella mycetomatis, MM55; IC90, replicate 2; read-out: IC90 2 um): > 25 µM; IC90 (M. mycetomatis MM55; Madurella mycetomatis, MM55; IC90, replicate 3; read-out: IC90 3 um): > 25 µM |
| Nc1c(C(=O)NCc2ccco2)c2nc3ccccc3nc2n1CCN1CCCCC1 [MMV099714] | Static |  |  |  | 45.3 | 3.55 | -0.102 | 3.69 |  |  |  |  |  |  |  |  |  | activity at 100 µM [1, 9]: 7.05%; activity at 25 µM ([1]; read-out: Percentage survival at 25um, 25 uM B): -3.06%; activity at 25 µM ([1]; read-out: Percentage survival at 25um, 25 uM C): 13%; activity at 25 µM ([1]; read-out: Percentage survival at 25um, 25 uM mean): 18.4%; IC50 (M. mycetomatis MM55; Madurella mycetomatis, MM55, read-out: IC50 1 um): > 25 µM; IC50 (M. mycetomatis MM55; Madurella mycetomatis, MM55, read-out: IC50 2 um): > 25 µM; IC50 (M. mycetomatis MM55; Madurella mycetomatis, MM55, read-out: IC50 3 um): > 25 µM; IC50 (M. mycetomatis MM55; Madurella mycetomatis, MM55, read-out: IC50 mean): > 25 µM; IC90 (M. mycetomatis MM55; Madurella mycetomatis, MM55, read-out: IC90 1 um): > 25 µM; IC90 (M. mycetomatis MM55; Madurella mycetomatis, MM55, read-out: IC90 2 um): > 25 µM; IC90 (M. mycetomatis MM55; Madurella mycetomatis, MM55, read-out: IC90 3 um): > 25 µM; IC90 (M. mycetomatis MM55; Madurella mycetomatis, MM55, read-out: IC90 mean): > 25 µM |
| N=c1n(CCN2CCCCC2)c2ccccc2n1CC(O)COc1ccc(Cl)cc1Cl (stereo not drawn) [MMV394033] | Cidal | 18.7 | 16.3 | 16.4 | -10.3 | -2.82 | -5.36 | -0.0169 | -4.41 | -2.83 | -0.144 | -3.08 | 17.1 | > 25 | 23.5 | 23.7 |  |  |
| Oc1c(C(Nc2ccccn2)c2ccccc2)ccc2cccnc12 (stereo not drawn) [MMV565773] | Cidal | 16.5 | 15.9 | 16.6 | 9.67 | 11.7 | 9.08 | 17.8 | 15.4 | 6.46 | 30.1 | 8.24 | 16.3 | 24.2 | 24.9 | 24.4 | 24.5 |  |
| CC(C)=CCC/C(C)=C/CNCCNC1C2CC3CC(C2)CC1C3 (stereo not drawn) [MMV687273] |  | 23.9 | 14.6 | > 25 |  |  |  |  |  |  |  |  |  | > 25 | 22.9 | > 25 |  | activity at 25 µM [1, 19]: 1.12%; activity at 25 µM [1, 20]: -2.04%; activity at 25 µM [1, 21]: 4.77%; activity at 25 µM [1, 22]: 0.619%; activity at 100 µM [1, 23]: 6.61%; activity at 100 µM [1, 24]: 4.04%; Percent fungal survival at 100 µM [1, 25]: 15.3%; activity at 100 µM [1, 26]: 0.477%; Drug static or cidal (M. mycetomatis MM55; M. mycetomatis): Cidal |
| NCC(=O)Nc1ccc(-n2nc(C(F)(F)F)cc2-c2ccc3c(ccc4ccccc43)c2)cc1 [MMV1578560] | Static |  |  |  | 29.4 |  |  |  |  | -2.28 | 2.05 |  |  |  |  |  |  | activity at 25 µM ([1]; 25 uM, mean, read-out: Percentage survival at 25um, 25 uM mean): 9.74%; activity at 100 µM ([1]; mean, read-out: Percentage survival at 100um, 100 uM mean): 3%; activity at 100 µM ([1]; replicate (first column), read-out: Percentage survival at 100um, 100 uM A): -6.61%; activity at 100 µM ([1]; replicate (second column), read-out: Percentage survival at 100um, 100 uM A): 10.2%; activity at 100 µM ([1]; replicate (third column), read-out: Percentage survival at 100um, 100 uM A): 5.38%; IC90 (M. mycetomatis MM55; Madurella mycetomatis, MM55; read-out: IC90 mean): > 25 µM; IC50 (M. mycetomatis MM55; Madurella mycetomatis, MM55; replicate 1; read-out: IC50 1): 17.4 µM; IC90 (M. mycetomatis MM55; Madurella mycetomatis, MM55; replicate 1; read-out: IC90 1): > 25 µM; IC50 (M. mycetomatis MM55; Madurella mycetomatis, MM55; replicate 2; read-out: IC50 2): 22.8 µM; IC90 (M. mycetomatis MM55; Madurella mycetomatis, MM55; replicate 2; read-out: IC90 2): > 25 µM; IC50 (M. mycetomatis MM55; Madurella mycetomatis, MM55; replicate 3; read-out: IC50 3): > 25 µM; IC90 (M. mycetomatis MM55; Madurella mycetomatis, MM55; replicate 3; read-out: IC90 3): > 25 µM |
| O=S(=O)(Nc1cccc2cccnc12)c1ccccc1 [MMV1578890] |  | 6.8 | 12.5 | 12.1 |  |  |  |  |  |  |  |  |  | 23.7 | 22.2 | 22.2 |  | activity at 25 µM [1, 19]: 2.42%; activity at 25 µM [1, 20]: 2.33%; activity at 25 µM [1, 21]: 0.789%; activity at 25 µM [1, 22]: 4.13%; activity at 100 µM [1, 23]: 29.9%; activity at 100 µM [1, 24]: 1.58%; Percent fungal survival at 100 µM [1, 25]: 81.7%; activity at 100 µM [1, 26]: 6.47%; Drug static or cidal (M. mycetomatis MM55; M. mycetomatis): Static; IC50 (M. mycetomatis MM55; [2]): 10.5 µM; IC90 (M. mycetomatis MM55; Madurella mycetomatis, MM55, mean of replicates; read-out: IC90 mean): 22.7 µM |
| CC(C)Oc1ccc(-c2nc(-c3cccc4c3CC[C@@H]4NCCO)no2)cc1C#N [MMV1580492] | Cidal | > 25 | > 25 | > 25 | -14.6 | 2.78 | -1.25 | 12 | -6.9 | -6.47 | 0.368 | -2.44 | > 25 | > 25 | > 25 | > 25 | > 25 |  |
| FC(F)(F)Oc1ccc(Nc2ccc3cccc(Cl)c3n2)cc1 [MMV1581032] | Static | > 25 | > 25 | > 25 | -12.4 | 0.711 | -4.67 | 5.8 | -0.326 | 8.52 | 2.93 | 1 | > 25 | > 25 | > 25 | > 25 | > 25 |  |
| Cc1cc(O)c2c(c1)C(=O)c1c(I)c(O)c(I)c(O)c1C2=O [MMV1581545] | Cidal | > 25 | > 25 | > 25 | 10.6 | 12.4 | 10.8 | 12.3 | 12.4 | 4.74 | 21.8 | 14.2 | > 25 | > 25 | > 25 | > 25 | > 25 |  |
| N#Cc1c(F)c(Cl)c(NCc2ccccc2)c(C#N)c1F [MMV1582496] | Static | 13.2 | 15.8 | 16.5 | 2 | 2.09 | -0.676 | 5.72 | 4.98 | -0.68 | 13.6 | 1.24 | 15.2 | 23.1 | 23.6 | 24.2 | 23.6 |  |
